Target: T1, C-X-C chemokine receptor type 5 (Homo sapiens, UniProt P32302)
T1 sequence (P32302 whole entry): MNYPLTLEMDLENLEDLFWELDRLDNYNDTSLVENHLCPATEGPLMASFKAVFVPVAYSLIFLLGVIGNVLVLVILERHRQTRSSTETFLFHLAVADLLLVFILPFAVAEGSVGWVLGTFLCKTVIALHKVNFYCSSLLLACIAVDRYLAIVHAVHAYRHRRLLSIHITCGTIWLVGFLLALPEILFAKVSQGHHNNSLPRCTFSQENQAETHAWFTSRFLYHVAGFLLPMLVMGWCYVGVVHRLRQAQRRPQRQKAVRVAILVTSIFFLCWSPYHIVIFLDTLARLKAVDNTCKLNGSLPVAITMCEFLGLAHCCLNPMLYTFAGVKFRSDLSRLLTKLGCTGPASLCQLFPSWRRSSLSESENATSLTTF
Experiment: Antagonist activity against human CXCR5 expressed in RBL cells assessed as inhibition of human CXCL13-induced intracellular Ca2+ level by fluo-4/AM dye based FLIPR assay
Type: functional, cell-based

Row | SMILES | IC50
1 | Cc1cccc(C(=O)NC2(C(=O)O)Cc3c(C)sc(C)c3C2)c1OC(C)C | 17.4 µM
2 | O=C(NC1(C(=O)O)Cc2ccccc2C1)c1cccc2cccnc12 | > 30 µM
3 | O=C(O)c1ccc2c(c1)CC(NC(=O)c1cccc3c1CCCC3)(C(=O)O)C2 (stereo unspecified) | > 30 µM
4 | CC(C)=Cc1c(C)cccc1C(=O)NC1(C(=O)O)Cc2ccc(F)c(F)c2C1 (stereo unspecified) | 0.005 µM
5 | O=C(NC1(C(=O)O)Cc2ccccc2C1)c1cccc2c1OCCO2 | > 30 µM
6 | O=C(NC1(C(=O)O)Cc2ccccc2C1)c1cccc2c1CCCC2 | 0.675 µM
7 | Cc1cccc(C(=O)NC2(C(=O)O)Cc3ccc(C(N)=O)cc3C2)c1OC(C)C (stereo unspecified) | > 30 µM
8 | O=C(NC1(C(=O)O)Cc2ccccc2C1)c1cccc2cc[nH]c12 | > 30 µM
9 | Cc1cccc(C(=O)N(C)C2(C(=O)O)Cc3ccccc3C2)c1OC(C)C | > 30 µM
10 | Cc1cccc(C(=O)NC2(C(=O)O)Cc3ccc(C(=O)O)cc3C2)c1OC1CCC1 (stereo unspecified) | > 30 µM
11 | Cc1cc2c(cc1C)CC(NC(=O)c1cccc(C)c1OC(C)C)(C(=O)O)C2 | 27 µM
12 | C=CCOc1c(Cl)cc(Cl)cc1S(=O)(=O)NC1(C(=O)O)Cc2ccccc2C1 | 13 µM
13 | CCC(C)Oc1c(C)cccc1C(=O)NC1(C(=O)O)Cc2ccccc2C1 (stereo unspecified) | 1.08 µM
14 | Cc1cccc(C(=O)NC2(C(=O)O)Cc3ccc(C#N)cc3C2)c1OC(C)C (stereo unspecified) | 20.5 µM
15 | CC(C)=Cc1c(C)cccc1C(=O)NC1(C(=O)O)Cc2ccccc2C1 | 0.033 µM
16 | O=C(NC1(C(=O)O)Cc2ccc(C(F)(F)F)cc2C1)c1cccc2c1CCCC2 (stereo unspecified) | 6.1 µM
17 | Cc1cccc(C(=O)NC2(C(=O)O)Cc3ccccc3C2)c1C1CCCC1 | 0.533 µM
18 | C=CCOc1c(Cl)cccc1C(=O)NC1(C(=O)O)Cc2ccccc2C1 | 3.65 µM
19 | Cc1cccc(C(=O)N[C@@]2(C(=O)O)Cc3ccc(F)cc3C2)c1CC(C)C (single isomer, unassigned) | 0.007 µM
20 | Cc1cccc(C(=O)N[C@]2(C(=O)O)Cc3ccc(F)cc3C2)c1CC(C)C (single isomer, unassigned) | 0.03 µM
21 | O=C(NC1(C(=O)O)Cc2ccccc2C1)c1cncc2ccccc12 | > 30 µM
22 | O=C(NC1(C(=O)O)Cc2ccccc2C1)c1cc(F)cc2c1OCOC2 | 30 µM
23 | O=C(NC1(C(=O)O)Cc2ccccc2C1)c1cccc2[nH]ccc12 | > 30 µM
24 | CCCc1c(C)cccc1C(=O)NC1(C(=O)O)Cc2ccccc2C1 | 0.023 µM

Row | SMILES | IC50
25 | COc1ccc2c(c1)CC(NC(=O)c1cccc(C)c1OC(C)C)(C(=O)O)C2 (stereo unspecified) | 18.2 µM
26 | Cc1cccc(C(=O)NC2(C(=O)O)Cc3ccc(F)cc3C2)c1OC1CCC1 (stereo unspecified) | 0.38 µM
27 | CCC/C=C\c1c(C)cccc1C(=O)NC1(C(=O)O)Cc2ccccc2C1 | 0.099 µM
28 | CCCc1c(C)cccc1C(=O)NC1(C(=O)O)Cc2ccc(F)cc2C1 (stereo unspecified) | 0.047 µM
29 | Cc1cccc(C(=O)NC2(C(=O)O)Cc3ccccc3C2)c1C1=CCCC1 | 0.056 µM
30 | Cc1cccc(C(=O)NC2(C(=O)O)Cc3ccccc3C2)c1/C=C/C1CC1 | 8.2 µM
31 | C/C=C/c1c(C)cccc1C(=O)NC1(C(=O)O)Cc2ccc(F)cc2C1 (stereo unspecified) | 0.2 µM
32 | Cc1cccc(C(=O)NC2(C(=O)O)Cc3ccc(C#N)cc3C2)c1OC1CCC1 (stereo unspecified) | 10.1 µM
33 | Cc1cccc(C(=O)NC2(C(=O)O)Cc3cc(F)c(F)cc3C2)c1CC(C)C | 0.017 µM
34 | C/C=C/c1c(C)cccc1C(=O)NC1(C(=O)O)Cc2ccccc2C1 | 0.232 µM
35 | Cc1cccc(C(=O)NC2(C(=O)O)Cc3ccc(C(N)=O)cc3C2)c1OC1CCC1 (stereo unspecified) | > 30 µM
36 | O=C(NC1(C(=O)O)Cc2ccc(F)cc2C1)c1cc(Cl)cc(Cl)c1OC1CCC1 (stereo unspecified) | 0.268 µM
37 | CC(C)=Cc1c(C)cccc1C(=O)NC1(C(=O)O)Cc2ccc(F)cc2C1 (stereo unspecified) | 0.011 µM
38 | CC/C=C(/CC)c1c(C)cccc1C(=O)NC1(C(=O)O)Cc2ccccc2C1 | 15.2 µM
39 | O=C(NC1(C(=O)O)Cc2ccccc2C1)c1ccc(F)c2ccccc12 | 13 µM
40 | COc1ccc2c(c1)CC(NC(=O)c1cccc3c1CCCC3)(C(=O)O)C2 (stereo unspecified) | 9.5 µM
41 | Cc1cccc(C(=O)NC2(C(=O)O)Cc3ccccc3C2)c1OCC1CC1 | 2.93 µM
42 | O=C(NC1(C(=O)O)Cc2ccccc2C1)c1cnc2ccccc2n1 | > 30 µM
43 | CCC/C=C/c1c(C)cccc1C(=O)NC1(C(=O)O)Cc2ccccc2C1 | 0.446 µM
44 | Cc1cccc(C(=O)NC2(C(=O)O)Cc3ccccc3C2)c1CC(C)C | 0.014 µM
45 | CCCc1c(C)cccc1C(=O)NC1(C(=O)O)Cc2cc(F)c(F)cc2C1 | 0.045 µM
46 | Cc1cccc(C(=O)NC2(C(=O)O)Cc3ccccc3C2)c1C1=CCCCC1 | 1.05 µM
47 | Cc1cccc(C(=O)NC2(C(=O)O)Cc3ccc(C(F)(F)F)cc3C2)c1OC(C)C (stereo unspecified) | 14.8 µM
48 | Cc1cccc(C(=O)NC2(C(=O)O)CCSCC2)c1OC(C)C | 24 µM

Row | SMILES | IC50
49 | Cc1cccc(C(=O)NC2(C(=O)O)Cc3ccc(F)cc3C2)c1CC(C)C (stereo unspecified) | 0.015 µM
50 | NC(=O)c1ccc2c(c1)CC(NC(=O)c1cccc3c1CCCC3)(C(=O)O)C2 (stereo unspecified) | > 30 µM
51 | CC(C)Oc1c(Cl)cc(Cl)cc1S(=O)(=O)NC1(C(=O)O)Cc2ccccc2C1 | 16 µM
52 | CCOc1ccc2ccccc2c1C(=O)NC1(C(=O)O)Cc2ccccc2C1 | 19.6 µM
53 | Cc1cccc(C(=O)NC2(C(=O)O)Cc3ccccc3C2)c1OC1CCC1 | 0.47 µM
54 | Cc1cccc(C(=O)NC2(C(=O)O)Cc3ccc(C(=O)O)cc3C2)c1OC(C)C (stereo unspecified) | > 30 µM
55 | O=C(O)C1(NS(=O)(=O)c2cccc3cccnc23)Cc2ccccc2C1 | > 30 µM
56 | CCCC#Cc1c(C)cccc1C(=O)NC1(C(=O)O)Cc2ccccc2C1 | 19.3 µM
57 | Cc1cccc(C(=O)NC2(C(=O)O)Cc3ccc(F)cc3C2)c1C1=CCCC1 (stereo unspecified) | 0.013 µM
58 | CC(C)=Cc1c(C)cccc1C(=O)NC1(C(=O)O)Cc2ccc(Cl)cc2C1 (stereo unspecified) | 0.009 µM
59 | CC(C)=Cc1c(C(=O)NC2(C(=O)O)Cc3ccccc3C2)cccc1C(F)(F)F | 0.026 µM
60 | Cc1sc(C)c2c1CC(NC(=O)c1cccc3c1CCCC3)(C(=O)O)C2 | 2.85 µM
61 | O=C(NC1(C(=O)O)Cc2ccccc2C1)c1cccc2c1NCCC2 | > 30 µM
62 | Cc1cccc(C(=O)NC2(C(=O)O)Cc3ccc(C(F)(F)F)cc3C2)c1OC1CCC1 (stereo unspecified) | 7.8 µM
63 | N#Cc1ccc2c(c1)CC(NC(=O)c1cccc3c1CCCC3)(C(=O)O)C2 (stereo unspecified) | 30 µM
64 | CC(C)=Cc1c(C)cccc1C(=O)NC1(C(=O)O)Cc2c(F)ccc(F)c2C1 | 0.038 µM
65 | CCCCCc1c(C)cccc1C(=O)NC1(C(=O)O)Cc2ccccc2C1 | 2.3 µM
66 | Cc1cccc(C(=O)NC2(C(=O)O)Cc3ccc(F)cc3C2)c1OC(C)C (stereo unspecified) | 0.537 µM
67 | CC(C)=Cc1c(C)cccc1C(=O)NC1(C(=O)O)Cc2cc(F)c(F)cc2C1 | 0.015 µM
68 | Cc1cccc(C(=O)NC2(C(=O)O)Cc3ccccc3C2)c1CCC1CC1 | 0.097 µM
69 | O=C(NC1(C(=O)O)Cc2ccccc2C1)c1cccc2ccccc12 | 5.45 µM
70 | O=C(NC1(C(=O)O)Cc2ccc(F)cc2C1)c1cccc2c1CCCC2 (stereo unspecified) | 0.298 µM
71 | CCCC(CC)c1c(C)cccc1C(=O)NC1(C(=O)O)Cc2ccccc2C1 (stereo unspecified) | 3.87 µM
